Laboratory results taken from patent US6617166B2, “Measurement of accelerated whole blood clotting time” (Prophylaxis Limited, priority 1999, dated 2003).
Where “and” joins values, the source holds several entries; their conditions need not be identical. Equal values may be shown once. Marks after values point to notes of the source that are not given here.

Legend:
[1] = system: recalcified citrated whole blood; assay: Accelerated whole blood clotting time (AWBCT), recalcified citrated whole blood (RCCWB); assay type: cell-based
Protocol: Comparison of the results using native blood and citrated blood was made. 9 parts of citrated blood was added to 1 part calcium n chloride 133 mM, mixed and aliquotes of the recalcified citrated blood added to the wells of the coagulometer containing duplicates of saline control and dilutions of collagen. A concentration of […] calcium chloride is considered to be optimal; but concentrations in the range of, for example, 110-140 mM may be used. However, it should be noted that the length and un-reliability of coagulation times increase with concentrations further from the optimum, especially with higher values.
(§1) Whilst native blood is tested immediately after collection, for example, within two minutes, citrated blood may be stored for a longer period, before being recalcified immediately before the test is conducted. The interval between blood collection and testing may be on the order of one hour. It should be noted that shorter collection intervals give more reliable results.
(§2) The test is performed on native freshly drawn venous blood, or recalcified citrated blood or heparinised blood.
(§3) 100 μL of saline control or a range of concentration of a platelet agonists are added to the wells of a coagulometer and then 200 μL of native or RCCWB whole blood added and the coagulation time recorded. The potential agonists are; collagen, ADP, adrenalin, platelet activating factor, thrombin. It is anticipated that the agonist appropriate for specific roles will emerge in the course of clinical studies.
(§4) Numbers are the time to coagulation in seconds. The results given are the averages of duplicates, unless otherwise indicated by an asterix, (corresponding to single coagulation times where spurious results have not been averaged).

[2] = system: native whole blood; assay: Accelerated whole blood clotting time (AWBCT), native blood; assay type: cell-based
Protocol: as §1, §2, §3, §4

Question: With `Nc1ncnc2c1ncn2[C@@H]1O[C@H](COP(=O)(O)OP(=O)(O)O)[C@@H](O)[C@H]1O` [ADP, adenosine diphosphate] as the compound, how does the “time to coagulation (AWBCT)” value ([1]; recalcified whole blood, ADP 12.5 μM, collection interval +65 mins) read?
Answer: 329 s

Question: And the “time to coagulation (AWBCT)” value ([1]; recalcified whole blood, ADP 25 μM, collection interval +65 mins)?
Answer: 358 s

Question: And the “time to coagulation (AWBCT)” value ([1]; recalcified whole blood, ADP 50 μM, collection interval +65 mins)?
Answer: 348 s

Question: What about the “time to coagulation (AWBCT)” value ([1]; recalcified whole blood, ADP 100 μM, collection interval +65 mins) of the same compound?
Answer: 341 s

Question: And the “time to coagulation (AWBCT)” value ([2]; ADP 6.25 μM)?
Answer: 265 s

Question: And the “time to coagulation (AWBCT)” value ([2]; ADP 12.5 μM)?
Answer: 269 s

Question: What about the “time to coagulation (AWBCT)” value ([2]; ADP 25 μM) of the same compound?
Answer: 272 s

Question: And the “time to coagulation (AWBCT)” value ([2]; ADP 50 μM)?
Answer: 255 s

Question: For `CC(=O)Oc1ccccc1C(=O)O` [Aspirin], which “time to coagulation (AWBCT)” value ([1]; RCCWB, aspirin 40 μg/ml, collagen 0.125 mg/ml, collection interval +135 min) is on record?
Answer: 275 s

Question: What about the “time to coagulation (AWBCT)” value ([1]; RCCWB, aspirin 40 μg/ml, collagen 0.25 mg/ml, collection interval +135 min) of the same compound?
Answer: 274 s

Question: What about the “time to coagulation (AWBCT)” value ([1]; RCCWB, aspirin 40 μg/ml, collagen 0.5 mg/ml, collection interval +135 min) of the same compound?
Answer: 216 s

Question: And the “time to coagulation (AWBCT)” value ([1]; RCCWB, aspirin 40 μg/ml, collagen 1.0 mg/ml, collection interval +135 min)?
Answer: 184 s

Question: And the “time to coagulation (AWBCT)” value ([1]; RCCWB, aspirin 40 μg/ml, saline, collection interval +135 min)?
Answer: 500 s

Question: And the “time to coagulation (AWBCT)” value ([1]; RCCWB, aspirin 80 μg/ml, collagen 0.125 mg/ml, collection interval +106 min)?
Answer: 224 s

Question: What about the “time to coagulation (AWBCT)” value ([1]; RCCWB, aspirin 80 μg/ml, collagen 0.25 mg/ml, collection interval +106 min) of the same compound?
Answer: 236 s

Question: And the “time to coagulation (AWBCT)” value ([1]; RCCWB, aspirin 80 μg/ml, collagen 0.5 mg/ml, collection interval +106 min)?
Answer: 218* seconds

Question: What about the “time to coagulation (AWBCT)” value ([1]; RCCWB, aspirin 80 μg/ml, collagen 1.0 mg/ml, collection interval +106 min) of the same compound?
Answer: 212 s

Question: And the “time to coagulation (AWBCT)” value ([1]; RCCWB, aspirin 80 μg/ml, saline, collection interval +106 min)?
Answer: 468 s

Question: What does the source list for Heparin?
Answer: time to coagulation (AWBCT) ([1]; RCCWB + Heparin 1.25 u/ml, collagen 0.125 mg/ml): 325* seconds; time to coagulation (AWBCT) ([1]; RCCWB + Heparin 1.25 u/ml, collagen 0.25 mg/ml): 302 s; time to coagulation (AWBCT) ([1]; RCCWB + Heparin 1.25 u/ml, collagen 0.5 mg/ml): 71 s; time to coagulation (AWBCT) ([1]; RCCWB + Heparin 1.25 u/ml, collagen 1.0 mg/ml): 54 s; time to coagulation (AWBCT) ([1]; RCCWB + Heparin 1.25 u/ml, saline): 500+ seconds; time to coagulation (AWBCT) ([1]; RCCWB + Heparin 2.5 u/ml, collagen 0.125 mg/ml): 340 s; time to coagulation (AWBCT) ([1]; RCCWB + Heparin 2.5 u/ml, collagen 0.25 mg/ml): 405 s; time to coagulation (AWBCT) ([1]; RCCWB + Heparin 2.5 u/ml, collagen 0.5 mg/ml): 61 s; time to coagulation (AWBCT) ([1]; RCCWB + Heparin 2.5 u/ml, collagen 1.0 mg/ml): 41 s; time to coagulation (AWBCT) ([1]; RCCWB + Heparin 2.5 u/ml, saline): 600+ seconds; time to coagulation (AWBCT) ([1]; RCCWB, Heparin 5.0 u/ml, collagen 0.125 mg/ml): 600+ seconds; time to coagulation (AWBCT) ([1]; RCCWB, Heparin 5.0 u/ml, collagen 0.25 mg/ml): 600+ seconds; time to coagulation (AWBCT) ([1]; RCCWB, Heparin 5.0 u/ml, collagen 0.5 mg/ml): 48 s; time to coagulation (AWBCT) ([1]; RCCWB, Heparin 5.0 u/ml, collagen 1.0 mg/ml): 31 s; time to coagulation (AWBCT) ([1]; RCCWB, Heparin 5.0 u/ml, saline): 600+ seconds; time to coagulation (AWBCT) ([1]; RCCWB, Heparin 10 u/ml, collagen 0.125 mg/ml): 600+ seconds; time to coagulation (AWBCT) ([1]; RCCWB, Heparin 10 u/ml, collagen 0.25 mg/ml): 600+ seconds; time to coagulation (AWBCT) ([1]; RCCWB, Heparin 10 u/ml, collagen 0.5 mg/ml): 34 s; time to coagulation (AWBCT) ([1]; RCCWB, Heparin 10 u/ml, collagen 1.0 mg/ml): 27 s; time to coagulation (AWBCT) ([1]; RCCWB, Heparin 10 u/ml, saline): 600+ seconds

Question: For Low Molecular Weight Heparin [LMWH], which “time to coagulation (AWBCT)” value ([2]; LMWH 0.25 u/ml, collagen 0.125 mg/ml) is on record?
Answer: 233 s

Question: And the “time to coagulation (AWBCT)” value ([2]; LMWH 0.25 u/ml, collagen 0.25 mg/ml)?
Answer: 224 s

Question: What about the “time to coagulation (AWBCT)” value ([2]; LMWH 0.25 u/ml, collagen 0.5 mg/ml) of the same compound?
Answer: 204* seconds

Question: And the “time to coagulation (AWBCT)” value ([2]; LMWH 0.25 u/ml, collagen 1.0 mg/ml)?
Answer: 64 s

Question: And the “time to coagulation (AWBCT)” value ([2]; LMWH 0.25 u/ml, saline)?
Answer: 500+ seconds

Question: What about the “time to coagulation (AWBCT)” value ([2]; LMWH 0.5 u/ml, collagen 0.125 mg/ml) of the same compound?
Answer: 226 s

Question: What about the “time to coagulation (AWBCT)” value ([2]; LMWH 0.5 u/ml, collagen 0.25 mg/ml) of the same compound?
Answer: 228 s

Question: What about the “time to coagulation (AWBCT)” value ([2]; LMWH 0.5 u/ml, collagen 0.5 mg/ml) of the same compound?
Answer: 41 s

Question: And the “time to coagulation (AWBCT)” value ([2]; LMWH 0.5 u/ml, collagen 1.0 mg/ml)?
Answer: 46 s

Question: And the “time to coagulation (AWBCT)” value ([2]; LMWH 0.5 u/ml, saline)?
Answer: 500+ seconds

Question: What about the “time to coagulation (AWBCT)” value ([2]; LMWH 1.0 u/ml, collagen 0.125 mg/ml) of the same compound?
Answer: 318 s

Question: What about the “time to coagulation (AWBCT)” value ([2]; LMWH 1.0 u/ml, collagen 0.25 mg/ml) of the same compound?
Answer: 259 s

Question: And the “time to coagulation (AWBCT)” value ([2]; LMWH 1.0 u/ml, collagen 0.5 mg/ml)?
Answer: 48* seconds

Question: And the “time to coagulation (AWBCT)” value ([2]; LMWH 1.0 u/ml, collagen 1.0 mg/ml)?
Answer: 27* seconds

Question: What about the “time to coagulation (AWBCT)” value ([2]; LMWH 1.0 u/ml, saline) of the same compound?
Answer: 500+ seconds

Question: And the “time to coagulation (AWBCT)” value ([2]; LMWH 2.0 u/ml, collagen 0.125 mg/ml)?
Answer: 500+ seconds

Question: And the “time to coagulation (AWBCT)” value ([2]; LMWH 2.0 u/ml, collagen 0.25 mg/ml)?
Answer: 500+ seconds

Question: And the “time to coagulation (AWBCT)” value ([2]; LMWH 2.0 u/ml, collagen 0.5 mg/ml)?
Answer: 500+ seconds

Question: What about the “time to coagulation (AWBCT)” value ([2]; LMWH 2.0 u/ml, collagen 1.0 mg/ml) of the same compound?
Answer: 295 s

Question: What about the “time to coagulation (AWBCT)” value ([2]; LMWH 2.0 u/ml, saline) of the same compound?
Answer: 500+ seconds

Question: collagen was tested. Which “time to coagulation (AWBCT)” value ([1]; RCCWB 50 mins later, collagen 0.125 mg/ml) did it give?
Answer: 190 s

Question: And the “time to coagulation (AWBCT)” value ([1]; RCCWB 50 mins later, collagen 0.25 mg/ml)?
Answer: 184 s

Question: What about the “time to coagulation (AWBCT)” value ([1]; RCCWB 50 mins later, collagen 0.5 mg/ml) of the same compound?
Answer: 181 s

Question: What about the “time to coagulation (AWBCT)” value ([1]; RCCWB 50 mins later, collagen 1.0 mg/ml) of the same compound?
Answer: 55 s

Question: What about the “time to coagulation (AWBCT)” value ([1]; RCCWB 75 mins later, collagen 0.125 mg/ml) of the same compound?
Answer: 202 s

Question: And the “time to coagulation (AWBCT)” value ([1]; RCCWB 75 mins later, collagen 0.25 mg/ml)?
Answer: 209 s

Question: And the “time to coagulation (AWBCT)” value ([1]; RCCWB 75 mins later, collagen 0.5 mg/ml)?
Answer: 70 s

Question: What about the “time to coagulation (AWBCT)” value ([1]; RCCWB 75 mins later, collagen 1.0 mg/ml) of the same compound?
Answer: 50 s

Question: And the “time to coagulation (AWBCT)” value ([1]; RCCWB, collagen 0.125 mg/ml)?
Answer: 166 s and 159 s and 177 s and 178 s

Question: What about the “time to coagulation (AWBCT)” value ([1]; RCCWB, collagen 0.25 mg/ml) of the same compound?
Answer: 185 seconds and 151 seconds and 165 seconds and 161* seconds

Question: And the “time to coagulation (AWBCT)” value ([1]; RCCWB, collagen 1.0 mg/ml)?
Answer: 44 s and 49 s and 39 s and 56 s

Question: And the “time to coagulation (AWBCT)” value ([2]; collagen 0.125 mg/ml)?
Answer: 178 s and 134 s and 140 s and 149 s

Question: And the “time to coagulation (AWBCT)” value ([2]; collagen 0.25 mg/ml)?
Answer: 162 s and 111 s and 125 s and 137 s

Question: And the “time to coagulation (AWBCT)” value ([2]; collagen 1.0 mg/ml)?
Answer: 34 seconds and 28* seconds and 24 seconds and 29 seconds
